What is called Kd is a measure of binding affinity in units of concentration. Read a high Kd as lower affinity.

The values below come from PMC4620497 (Scientific Reports, 2015).

A value given as a limit tells only on which side of the number the result lay.

In one test the target is ERK. The test can be described thus: KINOMEscan kinase binding assay (Kd). The following applies: Table S1. The text has this: (§1) In vitro KINOMEscan kinase binding assays (Ambit Biosciences) were employed to determine the binding affinity (Kd) of compounds[41][42].
(§2) compound 1. The y have very similar spectrum of activity in enz ymatic and cellular
(§3) levels. Both of them have the ability to inhibit Wnt/β -catenin si gnalin g. However, in […]

The target of the next test is T1, ERBB4 (Homo sapiens, UniProt Q15303).
T1 construct: purchased DiscoveRx KINOMEscan (Ambit Biosciences)
T1 sequence (Q15303 26-1308): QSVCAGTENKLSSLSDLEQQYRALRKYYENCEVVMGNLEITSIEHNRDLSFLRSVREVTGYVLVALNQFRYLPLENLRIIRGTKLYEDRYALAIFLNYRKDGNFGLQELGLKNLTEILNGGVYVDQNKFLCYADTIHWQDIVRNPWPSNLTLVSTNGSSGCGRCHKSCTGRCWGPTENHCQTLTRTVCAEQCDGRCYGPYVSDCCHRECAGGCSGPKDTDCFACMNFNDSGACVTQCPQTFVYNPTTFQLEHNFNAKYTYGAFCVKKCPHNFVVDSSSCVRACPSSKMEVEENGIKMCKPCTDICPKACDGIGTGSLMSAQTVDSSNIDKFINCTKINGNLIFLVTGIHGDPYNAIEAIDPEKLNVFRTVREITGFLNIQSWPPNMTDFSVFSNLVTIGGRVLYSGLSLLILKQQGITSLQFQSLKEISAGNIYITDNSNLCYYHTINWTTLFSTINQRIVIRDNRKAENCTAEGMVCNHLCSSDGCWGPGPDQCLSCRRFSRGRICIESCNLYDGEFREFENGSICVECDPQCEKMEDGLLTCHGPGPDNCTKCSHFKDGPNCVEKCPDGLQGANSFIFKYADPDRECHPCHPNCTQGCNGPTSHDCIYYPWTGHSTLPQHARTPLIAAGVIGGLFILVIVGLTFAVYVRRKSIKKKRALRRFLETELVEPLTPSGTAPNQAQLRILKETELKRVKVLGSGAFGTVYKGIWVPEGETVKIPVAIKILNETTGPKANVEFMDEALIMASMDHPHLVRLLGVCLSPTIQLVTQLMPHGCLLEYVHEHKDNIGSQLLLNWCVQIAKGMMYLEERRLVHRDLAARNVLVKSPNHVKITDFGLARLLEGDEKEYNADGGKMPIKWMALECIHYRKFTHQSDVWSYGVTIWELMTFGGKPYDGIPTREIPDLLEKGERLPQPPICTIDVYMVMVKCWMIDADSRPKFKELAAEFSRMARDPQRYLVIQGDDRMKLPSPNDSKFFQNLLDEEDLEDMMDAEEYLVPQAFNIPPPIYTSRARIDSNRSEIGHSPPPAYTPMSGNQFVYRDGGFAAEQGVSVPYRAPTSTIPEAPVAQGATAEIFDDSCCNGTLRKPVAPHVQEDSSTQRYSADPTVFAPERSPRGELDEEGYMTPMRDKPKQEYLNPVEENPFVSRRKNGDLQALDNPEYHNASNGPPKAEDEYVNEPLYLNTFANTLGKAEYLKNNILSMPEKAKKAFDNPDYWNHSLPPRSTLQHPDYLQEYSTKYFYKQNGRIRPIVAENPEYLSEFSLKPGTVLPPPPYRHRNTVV
The test can be described thus: KINOMEscan kinase binding assay (Kd). The following applies: Table S1.
Excerpt: as §1, §2, §3

The target in another test is T2, DMPK (Homo sapiens, UniProt Q09013).
T2 construct: purchased DiscoveRx KINOMEscan (Ambit Biosciences)
T2 sequence (Q09013 1-629): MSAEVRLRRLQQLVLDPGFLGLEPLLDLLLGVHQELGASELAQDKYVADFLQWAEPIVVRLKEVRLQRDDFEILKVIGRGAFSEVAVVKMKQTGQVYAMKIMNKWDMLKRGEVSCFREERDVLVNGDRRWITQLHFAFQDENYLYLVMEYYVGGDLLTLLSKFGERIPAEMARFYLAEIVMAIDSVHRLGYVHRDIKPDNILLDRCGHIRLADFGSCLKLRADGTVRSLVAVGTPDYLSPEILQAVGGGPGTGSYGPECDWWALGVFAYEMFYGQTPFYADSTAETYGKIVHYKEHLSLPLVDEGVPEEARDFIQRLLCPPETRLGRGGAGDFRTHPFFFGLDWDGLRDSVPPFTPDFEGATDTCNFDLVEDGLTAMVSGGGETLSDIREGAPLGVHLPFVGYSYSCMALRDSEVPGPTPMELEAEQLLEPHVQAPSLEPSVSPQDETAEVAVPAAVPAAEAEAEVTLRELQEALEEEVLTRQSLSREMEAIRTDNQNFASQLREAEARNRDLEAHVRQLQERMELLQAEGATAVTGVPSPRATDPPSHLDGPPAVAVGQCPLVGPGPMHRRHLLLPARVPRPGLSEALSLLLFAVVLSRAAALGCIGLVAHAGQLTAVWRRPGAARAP
As to the kind of experiment: KINOMEscan kinase binding assay (Kd). As to conditions: Table S1.
Excerpt: as §1, §2, §3

Another test concerns the target T3, CAMK4 (Homo sapiens, UniProt Q16566).
T3 construct: purchased DiscoveRx KINOMEscan (Ambit Biosciences)
T3 sequence (Q16566 1-473): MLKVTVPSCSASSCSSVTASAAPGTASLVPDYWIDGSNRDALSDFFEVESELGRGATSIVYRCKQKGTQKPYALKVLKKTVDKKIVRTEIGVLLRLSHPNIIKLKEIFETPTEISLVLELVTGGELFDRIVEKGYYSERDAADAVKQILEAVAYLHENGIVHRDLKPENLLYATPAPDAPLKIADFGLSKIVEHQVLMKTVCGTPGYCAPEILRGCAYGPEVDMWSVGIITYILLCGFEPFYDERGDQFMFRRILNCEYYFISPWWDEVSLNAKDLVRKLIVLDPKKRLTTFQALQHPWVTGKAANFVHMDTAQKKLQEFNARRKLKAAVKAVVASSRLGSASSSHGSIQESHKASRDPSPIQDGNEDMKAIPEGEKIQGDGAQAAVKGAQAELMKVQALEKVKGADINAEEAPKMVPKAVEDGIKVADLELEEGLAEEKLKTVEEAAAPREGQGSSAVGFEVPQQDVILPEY
The test can be described thus: KINOMEscan kinase binding assay (Kd). The following applies: Table S1.
Excerpt: as §1, §2, §3

Another test has as its target PAK1 (Homo sapiens, UniProt Q13153). The test can be described thus: KINOMEscan kinase binding assay (Kd). The following applies: Table S1.
Excerpt: as §1, §2, §3

A further test deals with T4, CHEK1 (Homo sapiens, UniProt O14757).
T4 construct: purchased DiscoveRx KINOMEscan (Ambit Biosciences)
T4 sequence (O14757 1-476): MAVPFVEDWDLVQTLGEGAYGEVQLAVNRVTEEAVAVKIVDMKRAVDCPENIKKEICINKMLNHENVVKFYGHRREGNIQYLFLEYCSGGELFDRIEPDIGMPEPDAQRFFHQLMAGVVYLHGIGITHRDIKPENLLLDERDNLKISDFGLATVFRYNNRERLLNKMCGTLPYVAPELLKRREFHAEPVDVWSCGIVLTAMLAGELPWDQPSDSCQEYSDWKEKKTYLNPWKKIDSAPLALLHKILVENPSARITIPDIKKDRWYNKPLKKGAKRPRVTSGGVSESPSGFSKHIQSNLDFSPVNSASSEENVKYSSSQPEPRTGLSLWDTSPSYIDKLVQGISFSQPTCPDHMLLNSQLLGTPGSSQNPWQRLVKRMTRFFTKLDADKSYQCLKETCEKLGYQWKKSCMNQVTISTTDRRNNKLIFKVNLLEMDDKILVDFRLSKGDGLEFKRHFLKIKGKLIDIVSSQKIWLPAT
As to the kind of experiment: KINOMEscan kinase binding assay (Kd). As to conditions: Table S1.
Excerpt: as §1, §2, §3

Another test addresses T5, DLK (Homo sapiens, UniProt Q12852).
T5 sequence (Q12852 1-859): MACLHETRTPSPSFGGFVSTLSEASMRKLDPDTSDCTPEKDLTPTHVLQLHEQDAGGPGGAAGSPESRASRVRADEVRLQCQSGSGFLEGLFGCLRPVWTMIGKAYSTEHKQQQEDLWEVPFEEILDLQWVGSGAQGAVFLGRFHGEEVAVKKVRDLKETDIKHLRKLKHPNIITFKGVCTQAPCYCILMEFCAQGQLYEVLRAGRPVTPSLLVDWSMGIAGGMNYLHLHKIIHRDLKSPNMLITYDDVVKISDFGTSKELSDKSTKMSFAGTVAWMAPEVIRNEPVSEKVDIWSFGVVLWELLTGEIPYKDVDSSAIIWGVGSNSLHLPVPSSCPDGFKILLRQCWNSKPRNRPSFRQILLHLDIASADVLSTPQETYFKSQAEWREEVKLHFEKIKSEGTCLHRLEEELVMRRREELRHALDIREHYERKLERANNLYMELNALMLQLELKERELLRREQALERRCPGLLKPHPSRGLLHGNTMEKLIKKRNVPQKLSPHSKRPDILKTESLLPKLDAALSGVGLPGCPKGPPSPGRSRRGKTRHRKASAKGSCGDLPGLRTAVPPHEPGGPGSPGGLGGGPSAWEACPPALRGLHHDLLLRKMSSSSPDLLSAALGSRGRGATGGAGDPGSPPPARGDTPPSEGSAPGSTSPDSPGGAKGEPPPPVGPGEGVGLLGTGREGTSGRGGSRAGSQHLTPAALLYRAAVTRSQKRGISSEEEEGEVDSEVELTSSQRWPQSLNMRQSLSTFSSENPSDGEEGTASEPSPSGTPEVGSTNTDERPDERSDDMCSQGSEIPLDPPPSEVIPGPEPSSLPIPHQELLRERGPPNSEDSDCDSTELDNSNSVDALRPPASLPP
As to the kind of experiment: KINOMEscan kinase binding assay (Kd). The following applies: Table S1.
Excerpt: as §1, §2, §3

The target of the next test is T6, HASPIN (Homo sapiens, UniProt Q8TF76).
T6 construct: purchased DiscoveRx KINOMEscan (Ambit Biosciences)
T6 sequence (Q8TF76 whole entry): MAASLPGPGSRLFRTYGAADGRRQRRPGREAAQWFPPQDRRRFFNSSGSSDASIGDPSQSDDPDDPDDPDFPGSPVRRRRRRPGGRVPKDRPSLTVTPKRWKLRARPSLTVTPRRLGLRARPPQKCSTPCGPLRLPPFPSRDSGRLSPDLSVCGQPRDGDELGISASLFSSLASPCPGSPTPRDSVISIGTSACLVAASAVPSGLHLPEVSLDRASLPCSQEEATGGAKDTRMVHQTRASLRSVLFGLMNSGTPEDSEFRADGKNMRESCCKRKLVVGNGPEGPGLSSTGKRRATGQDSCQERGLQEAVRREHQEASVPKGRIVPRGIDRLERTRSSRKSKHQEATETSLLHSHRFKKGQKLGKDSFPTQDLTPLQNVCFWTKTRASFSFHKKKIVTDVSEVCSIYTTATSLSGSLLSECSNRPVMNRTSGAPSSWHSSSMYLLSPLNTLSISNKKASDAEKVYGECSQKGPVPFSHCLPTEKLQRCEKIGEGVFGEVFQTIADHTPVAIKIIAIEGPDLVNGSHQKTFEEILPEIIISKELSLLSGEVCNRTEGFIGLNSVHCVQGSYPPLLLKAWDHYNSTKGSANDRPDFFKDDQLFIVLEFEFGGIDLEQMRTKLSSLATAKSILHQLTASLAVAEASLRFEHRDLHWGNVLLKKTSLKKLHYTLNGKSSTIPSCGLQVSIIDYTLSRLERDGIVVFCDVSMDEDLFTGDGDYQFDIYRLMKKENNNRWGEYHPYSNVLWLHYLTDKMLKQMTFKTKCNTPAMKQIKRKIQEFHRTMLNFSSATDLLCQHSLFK
The test can be described thus: KINOMEscan panel screen. It is filed as binding. As to conditions: read-out: Percent Control(%).

For the next test, the target named is T7, SRMS (Homo sapiens, UniProt Q9H3Y6).
T7 construct: purchased DiscoveRx KINOMEscan (Ambit Biosciences)
T7 sequence (Q9H3Y6 whole entry): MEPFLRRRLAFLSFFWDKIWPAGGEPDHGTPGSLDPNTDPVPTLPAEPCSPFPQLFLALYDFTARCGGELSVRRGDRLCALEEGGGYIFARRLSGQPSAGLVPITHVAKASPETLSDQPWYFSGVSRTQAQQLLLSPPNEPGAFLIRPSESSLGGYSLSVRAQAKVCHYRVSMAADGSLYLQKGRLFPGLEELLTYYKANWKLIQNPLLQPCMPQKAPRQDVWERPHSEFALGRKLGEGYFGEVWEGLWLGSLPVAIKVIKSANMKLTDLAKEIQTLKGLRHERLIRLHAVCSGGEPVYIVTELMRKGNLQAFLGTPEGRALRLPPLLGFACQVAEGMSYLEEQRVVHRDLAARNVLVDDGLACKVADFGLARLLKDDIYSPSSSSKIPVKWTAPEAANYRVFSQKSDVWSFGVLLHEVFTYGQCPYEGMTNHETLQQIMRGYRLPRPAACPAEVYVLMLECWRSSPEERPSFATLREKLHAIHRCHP
The test can be described thus: KINOMEscan panel screen. Format: binding. The following applies: read-out: Percent Control(%).

Another test has as its target T8, NLK (Homo sapiens, UniProt Q9UBE8).
T8 construct: purchased DiscoveRx KINOMEscan (Ambit Biosciences)
As to the kind of experiment: KINOMEscan panel screen. Format: binding. As to conditions: read-out: Percent Control(%).

Sequence of PAK1 (Q13153 whole entry): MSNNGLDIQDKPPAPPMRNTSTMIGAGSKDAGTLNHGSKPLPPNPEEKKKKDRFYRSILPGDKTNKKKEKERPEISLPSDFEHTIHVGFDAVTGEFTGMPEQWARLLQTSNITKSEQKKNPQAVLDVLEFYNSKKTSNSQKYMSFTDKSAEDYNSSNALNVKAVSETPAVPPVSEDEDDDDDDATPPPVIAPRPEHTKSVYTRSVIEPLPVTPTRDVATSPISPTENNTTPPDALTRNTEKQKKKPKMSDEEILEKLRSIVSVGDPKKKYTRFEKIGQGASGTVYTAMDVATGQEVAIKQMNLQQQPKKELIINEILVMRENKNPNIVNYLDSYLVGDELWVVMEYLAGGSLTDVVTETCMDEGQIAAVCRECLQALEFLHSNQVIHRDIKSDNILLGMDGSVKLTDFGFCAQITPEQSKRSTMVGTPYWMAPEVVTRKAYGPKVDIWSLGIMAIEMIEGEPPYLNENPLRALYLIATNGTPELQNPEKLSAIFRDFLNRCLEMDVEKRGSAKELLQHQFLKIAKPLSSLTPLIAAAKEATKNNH
T8 sequence (Q9UBE8 whole entry): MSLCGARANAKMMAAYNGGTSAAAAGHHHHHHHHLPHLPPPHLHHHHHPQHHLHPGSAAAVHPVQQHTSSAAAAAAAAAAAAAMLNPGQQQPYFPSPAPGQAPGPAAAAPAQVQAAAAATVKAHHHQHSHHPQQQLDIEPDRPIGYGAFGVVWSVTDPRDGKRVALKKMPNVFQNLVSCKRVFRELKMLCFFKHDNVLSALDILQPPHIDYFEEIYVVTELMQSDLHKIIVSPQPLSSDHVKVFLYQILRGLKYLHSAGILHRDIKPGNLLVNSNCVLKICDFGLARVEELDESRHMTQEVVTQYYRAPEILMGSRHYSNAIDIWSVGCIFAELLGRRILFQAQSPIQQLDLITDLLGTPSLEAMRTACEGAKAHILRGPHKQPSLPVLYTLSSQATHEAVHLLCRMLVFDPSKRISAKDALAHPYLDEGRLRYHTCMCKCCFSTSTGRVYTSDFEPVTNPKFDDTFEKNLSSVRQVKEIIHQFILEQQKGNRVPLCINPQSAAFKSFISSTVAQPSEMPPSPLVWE

Take `CC(C)(C)c1cc(NC(=O)Nc2ccc(Oc3ncnc4[nH]ncc34)c(F)c2)no1` [SKLB-677, 1-(4-(1H-pyrazolo[3,4-d]pyrimidin-4-yloxy)-3-fluorophenyl)-3-(5-tert-butylisoxazol-3-yl)urea]: the Kd at ERK, on ERBB4, on DMPK, at CAMK4, on PAK1 and at CHEK1 was over 10 µM each time. The Kd at DLK was over 10 µM. In addition, the remaining binding at 10 µM on HASPIN is 42%; on SRMS, 57%; on NLK it was 1.2%.
